From patent US10189819B2, “Factor IXa inhibitors” (MERCK SHARP & DOHME CORP., priority 2014, dated 2019)

Biological target: Factor IXa (Homo sapiens (Human), UniProt P00740)
Assay: Determination of inhibitory activity against Factor IXa (cleavage of fluorescent peptide CH3SO2-D-CHG-Gly-Arg-AFC)
Format: biochemical
Conditions: read-out: hFIXa IC50
Procedure: Determination of Inhibitory Activity Against Factor IXa
Formation of a clot to stem bleeding at a site of blood vessel injury involves the coordinated activity of a group of plasma proteins that initiate and propagate fibrin formation and subsequently protect fibrin from premature degradation. Factor IX is a key component of the plasma system that forms a fibrin clot at a site of vascular injury. The activity of Factor IXa is measured by monitoring the cleavage of the fluorescent peptide, CH3SO2-D-CHG-Gly-Arg-AFC.AcOH (“CHG” is cyclohexyl-glycine and “AFC” is trifluoro aminomethyl coumarin). Factor IXa cleaves the amide bond between Arg and AFC, thereby releasing the AFC fluorophore. The free AFC can be detected with a fluorescence detector at an excitation wavelength of 405 nm and emission wavelength of 510 nm.

Chain of Factor IXa (P00740 227-461): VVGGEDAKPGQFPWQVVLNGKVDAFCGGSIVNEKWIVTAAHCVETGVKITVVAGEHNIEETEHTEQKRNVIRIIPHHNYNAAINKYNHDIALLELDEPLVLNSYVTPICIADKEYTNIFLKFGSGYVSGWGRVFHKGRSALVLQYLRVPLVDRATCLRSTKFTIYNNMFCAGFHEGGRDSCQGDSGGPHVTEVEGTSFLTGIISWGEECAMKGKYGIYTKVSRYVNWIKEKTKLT
Chain of Factor IXa (P00740 47-191 partner): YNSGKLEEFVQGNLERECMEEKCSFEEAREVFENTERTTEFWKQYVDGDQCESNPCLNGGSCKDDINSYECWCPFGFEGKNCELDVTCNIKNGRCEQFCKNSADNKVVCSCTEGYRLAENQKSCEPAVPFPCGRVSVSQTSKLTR

IC50	Compound
6.68 nM	Cc1ccc(F)c2nc(C(CNC(=O)c3ccc(-n4cnnc4)cc3Cl)c3ccccc3)[nH]c(=O)c12 (centres unmarked) [Example 101]
10.7 nM	Cc1ncn(-c2ccc(C(=O)NC[C@@H](c3ccccc3)c3nc4c(F)ccc(C)c4c(=O)[nH]3)c(Cl)c2)n1 [Example 102]
6.35 nM	Cc1ncn(-c2ccc(C(=O)NC[C@@H](c3cccc(F)c3)c3nc4c(F)ccc(C)c4c(=O)[nH]3)c(Cl)c2)n1 [Example 103]
1.97 nM	O=C(O)c1ccc2ncn(-c3ccc(C(=O)NCC(c4cccc(F)c4)c4nc5c(F)ccc(Cl)c5c(=O)[nH]4)c(Cl)c3)c2c1 (centres unmarked) [Example 104]
3.32 nM	O=C(O)c1ccc2c(c1)ncn2-c1ccc(C(=O)NCC(c2cccc(F)c2)c2nc3c(F)ccc(Cl)c3c(=O)[nH]2)c(Cl)c1 (centres unmarked) [Example 105]
8.5 nM	Cc1ccc(F)c2nc([C@@H](CNC(=O)c3ccc(-c4ccnnc4)cc3Cl)c3cccc(F)c3)[nH]c(=O)c12 [Example 106]
7.3 nM	Cc1ccc(F)c2nc([C@@H](CNC(=O)c3ccc(-n4cnc(CCO)c4)cc3Cl)c3cccc(F)c3)[nH]c(=O)c12 [Example 107]
9.2 nM	Cc1ccc(F)c2nc([C@@H](CNC(=O)c3ccc(-c4ccc(=O)n(C)c4)cc3Cl)c3cccc(F)c3)[nH]c(=O)c12 [Example 108]
1.8 nM	Cc1ccc(F)c2nc([C@@H](CNC(=O)c3ccc(-n4cnn(C)c4=O)cc3Cl)c3cccc(F)c3)[nH]c(=O)c12 [Example 109]
8.9 nM	Cc1ncn(-c2cc(Cl)c(C(=O)NC[C@@H](c3cccnc3)c3nc4c(F)ccc(C)c4c(=O)n3C)c(Cl)c2)n1 [Example 110]
9.6 nM	Cc1ccc(F)c2nc([C@@H](CNC(=O)c3ccc(-n4cnnc4C(F)F)cc3Cl)c3cccc(F)c3)[nH]c(=O)c12 [Example 111]
10.4 nM	Cc1ncn(-c2cc(Cl)c(C(=O)NC[C@@H](c3cccc(F)c3)c3ccc4c(C)ccc(F)c4n3)c(Cl)c2)n1 [Example 113]
52.2 nM	COc1cc([C@@H](CNC(=O)c2c(Cl)cc(-n3cnc(C)n3)cc2Cl)c2cccc(F)c2)nc2c(F)ccc(C)c12 [Example 114]
51.1 nM	Cc1ncn(-c2cc(Cl)c(C(=O)NCC(c3cccc(F)c3)c3nc4cc(C)c(C)cc4[nH]c3=O)c(Cl)c2)n1 (centres unmarked) [Example 116]
